settings: not given

Compared with `CCCCNC(=O)COC(=O)c1ccccc1`, `CCCNC(=O)COC(=O)c1ccccc1` is lower in logP: 2.36 for the first, 1.88 for the second.

Compared with `CCCCCCN(CCCCCC)C(=O)COC(=O)c1ccccc1`, `CCCCCCN(C)C(=O)COC(=O)c1ccccc1` is lower in logP: 6.53 for the first, 2.99 for the second.

Going from `O=C(OCC(=O)N1CCC(O)CC1)c1ccccc1` to `O=C(OCC(=O)N1CCOCC1)c1ccccc1`, the logP rises from 0.63 to 0.9.

Going from `CC(O)CN(CC(C)O)C(=O)COC(=O)c1ccccc1` (stereo unspecified) to `CC(=O)N(C)C(=O)COC(=O)c1ccccc1`, the logP rises from 0.66 to 1.58.

Compared with `CCN(CC)C(=O)C(C)OC(=O)c1ccccc1` (stereo unspecified), `CC(C)NC(=O)COC(=O)c1ccccc1` is lower in logP: 2.3 for the first, 1.73 for the second.

Going from `CC(NC(=O)COC(=O)c1ccccc1)C(N)=O` (stereo unspecified) to `CNC(=O)COC(=O)c1ccccc1`, the logP rises from 0.42 to 0.99.

Compared with `NC(=O)C1CCCN1C(=O)COC(=O)c1ccccc1` (stereo unspecified), `CCC1CCCCN1C(=O)COC(=O)c1ccccc1` (stereo unspecified) is higher in logP: 0.2 for the first, 2.62 for the second.

`CCNC(=O)COC(=O)c1ccccc1` and `CC(=O)NC(=O)COC(=O)c1ccccc1` are within 0.2 log units of each other in logP: 1.28 for the first, 1.24 for the second.

Going from `CCCCCCNC(=O)COC(=O)c1ccccc1` to `CC(C)(C)NC(=O)COC(=O)c1ccccc1`, the logP falls from 2.81 to 2.26.

Going from `CC(=O)N(C)CCOC(=O)c1ccccc1` to `NC(=O)COC(=O)c1ccccc1`, the logP falls from 1.24 to 0.69.

Compared with `O=C(COC(=O)c1ccccc1)NC(CO)(CO)CO`, `O=C(OCC(=O)N1CCCCC1)c1ccccc1` is higher in logP: 0.25 for the first, 1.95 for the second.

Compared with `C=CCN(CC=C)C(=O)COC(=O)c1ccccc1`, `COCCN(CCOC)C(=O)COC(=O)c1ccccc1` is lower in logP: 2.34 for the first, 1.28 for the second.

same assay, conditions: pH 2.0

`O=C(OCC(=O)N1CCC1C(=O)O)c1ccccc1` (stereo unspecified) and `CN(CC(=O)O)C(=O)COC(=O)c1ccccc1` are within 0.2 log units of each other in logD: 0.79 for the first, 0.67 for the second.

Reference: the SangsterLogP compilation
